Our source for the Ki, EC50 and Emax values is patent US20120053168A1, “FUSED BENZOAZEPINES AS NEURONAL NICOTINIC ACETYLCHOLINE RECEPTOR LIGANDS” (Targacept, Inc., priority 2009, published 2012).

The target of one assay is T1, Rat α4β2 nAChR subtype (Rattus norvegicus, UniProt P09483+P12390).
T1 construct: from tissue; host or cells: rat cerebral cortex membranes (female Sprague-Dawley)
The assay can be described thus: [3H]nicotine radioligand binding, membranes from rat cortex. How it is done:
Preparation of membranes from rat cortex: Rats (female, Sprague-Dawley), weighing 150-250 g, were maintained on a 12 h light/dark cycle and were allowed free access to water and food supplied by PMI Nutrition International, Inc. Animals were anesthetized with 70% CO2, and then decapitated. Brains were removed and placed on an ice-cold platform. The cerebral cortex was removed and placed in 20 volumes (weight:volume) of ice-cold preparative buffer (137 mM NaCl, 10.7 mM KCl, 5.8 mM KH2PO4, 8 mM Na2HPO4, 20 mM HEPES (free acid), 5 mM iodoacetamide, 1.6 mM EDTA, pH 7.4); PMSF, dissolved in methanol to a final concentration of 100 μM, was added and the suspension was homogenized by Polytron. The homogenate was centrifuged at 18,000×g for 20 min at 4° C. and the resulting pellet was re-suspended in 20 volumes of ice-cold water. After 60 min incubation on ice, a new pellet was collected by centrifugation at 18,000×g for 20 min at 4° C. The final pellet was re-suspended in 10 volumes of buffer and stored at ˜20° C.
On the day of the assay, the frozen membranes were thawed and spun at 48,000×g for 20 min. The supernatant was decanted and discarded. The pellet was resuspended in Dulbecco's phosphate buffered saline (PBS, Life Technologies) pH 7.4 and homogenized with the Polytron for 6 seconds. Protein concentrations were determined using a Pierce BCA Protein Assay Kit, with bovine serum albumin as the standard (Pierce Chemical Company, Rockford, Ill.).
Assay: Membrane preparations (approximately 50 μg for human and 200-300 μg protein for rat α4β2) were incubated in PBS (50 μL and 100 μL respectively) in the presence of competitor compound (0.01 nM to 100 μM) and 5 nM [^3H]nicotine for 2-3 hours on ice. Incubation was terminated by rapid filtration on a multi-manifold tissue harvester (Brandel, Gaithersburg, Md.) using GF/B filters presoaked in 0.33% polyethyleneimine (w/v) to reduce non-specific binding. Tissue was rinsed 3 times in PBS, pH 7.4. Scintillation fluid was added to filters containing the washed tissue and allowed to equilibrate. Filters were then counted to determine radioactivity bound to the membranes by liquid scintillation counting (2200CA Tri-Carb LSC, Packard Instruments, 50% efficiency or Wallac Trilux 1450 MicroBeta, 40% efficiency, Perkin Elmer).
Data were expressed as disintegrations per minute (DPMs). Within each assay, each point had 2-3 replicates. The replicates for each point were averaged and plotted against the log of the drug concentration. IC50, which is the concentration of the compound that produces 50% inhibition of binding, was determined by least squares non-linear regression. Ki values were calculated using the Cheng-Prussof equation (1973): […]
where N is the concentration of [^3H]nicotine and Kd is the affinity of nicotine (3 nM, determined in a separate experiment).

Assay [1] concerns the target T2, human muscle nAChR subtype (Homo sapiens, UniProt P02708+P07510+Q07001).
T2 construct: endogenous in cells; host or cells: TE671/RD human rhabdomyosarcoma cells
The assay can be described thus: 86Rb+ efflux in TE671/RD cells (human muscle nAChR subtype). Type of assay: cell-based. The source says: Example 7: Interaction at the Human Muscle nAChR Subtype
Activation of muscle-type nAChRs was established on the human clonal line TE671/RD, which is derived from an embryonal rhabdomyosarcoma (Stratton et al., Carcinogen 10: 899 (1989)). These cells express receptors that have pharmacological (Lukas, J. Pharmacol. Exp. Ther. 251: 175 (1989)), electrophysiological (Oswald et al., Neurosci. Lett. 96: 207 (1989)), and molecular biological profiles (Luther et al., J. Neurosci. 9: 1082 (1989)) similar to the muscle-type nAChR.
TE671/RD cells were maintained in proliferative growth phase according to routine protocols (Bencherif et al., Mol. Cell. Neurosci. 2: 52 (1991) and Bencherif et al., J. Pharmacol. Exp. Ther. 257: 946 (1991)). […]
Nicotinic acetylcholine receptor (nAChR) function was assayed using ^86Rb^+efflux according to the method described by Lukas et al., Anal. Biochem. 175: 212 (1988). […] Scintillation fluid was added and released radioactivity was measured by liquid scintillation counting. […]
When appropriate, dose-response curves of test compound were determined. The maximal activation for individual compounds (Emax) was determined as a percentage of the maximal activation induced by L-nicotine. The compound concentration resulting in half maximal activation (EC50) of specific ion flux was also determined.

T2 sequence (P02708 21-457): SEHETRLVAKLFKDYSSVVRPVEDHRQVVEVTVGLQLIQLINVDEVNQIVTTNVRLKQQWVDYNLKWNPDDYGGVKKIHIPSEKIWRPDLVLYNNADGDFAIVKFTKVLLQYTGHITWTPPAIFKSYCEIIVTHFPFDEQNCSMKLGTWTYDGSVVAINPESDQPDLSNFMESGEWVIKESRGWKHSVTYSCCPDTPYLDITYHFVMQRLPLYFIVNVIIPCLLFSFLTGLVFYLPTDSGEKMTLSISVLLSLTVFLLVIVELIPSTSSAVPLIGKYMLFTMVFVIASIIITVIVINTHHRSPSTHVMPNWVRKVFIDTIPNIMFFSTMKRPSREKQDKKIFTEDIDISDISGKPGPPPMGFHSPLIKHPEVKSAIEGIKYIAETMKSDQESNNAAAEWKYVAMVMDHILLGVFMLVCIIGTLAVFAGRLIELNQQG
T2 sequence (P07510 23-517): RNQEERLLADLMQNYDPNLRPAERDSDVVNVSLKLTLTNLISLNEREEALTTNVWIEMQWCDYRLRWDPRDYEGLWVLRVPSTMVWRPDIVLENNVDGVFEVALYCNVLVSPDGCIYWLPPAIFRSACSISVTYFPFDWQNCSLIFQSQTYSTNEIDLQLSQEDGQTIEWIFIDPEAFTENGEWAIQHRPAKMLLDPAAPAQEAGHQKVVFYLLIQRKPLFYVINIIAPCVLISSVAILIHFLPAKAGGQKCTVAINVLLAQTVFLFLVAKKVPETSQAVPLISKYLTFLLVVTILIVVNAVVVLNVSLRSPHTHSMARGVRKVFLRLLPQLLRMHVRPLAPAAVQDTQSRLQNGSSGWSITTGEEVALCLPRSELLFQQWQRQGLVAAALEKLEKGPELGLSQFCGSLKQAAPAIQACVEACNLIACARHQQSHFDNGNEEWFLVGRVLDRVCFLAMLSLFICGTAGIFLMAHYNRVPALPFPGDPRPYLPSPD
T2 sequence (Q07001 22-517): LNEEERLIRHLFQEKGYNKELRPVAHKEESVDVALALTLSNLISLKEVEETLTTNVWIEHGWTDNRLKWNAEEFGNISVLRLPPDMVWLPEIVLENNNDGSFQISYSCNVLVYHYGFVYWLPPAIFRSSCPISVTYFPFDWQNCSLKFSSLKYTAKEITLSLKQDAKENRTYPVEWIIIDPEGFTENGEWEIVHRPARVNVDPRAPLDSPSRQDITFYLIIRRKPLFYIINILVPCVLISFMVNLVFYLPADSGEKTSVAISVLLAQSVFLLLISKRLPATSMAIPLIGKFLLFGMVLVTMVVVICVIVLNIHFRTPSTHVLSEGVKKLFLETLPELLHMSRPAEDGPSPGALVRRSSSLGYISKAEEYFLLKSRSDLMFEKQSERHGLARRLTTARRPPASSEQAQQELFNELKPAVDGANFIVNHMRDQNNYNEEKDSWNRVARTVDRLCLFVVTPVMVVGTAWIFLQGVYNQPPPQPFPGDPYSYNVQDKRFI
T2 sequence (P11230 24-501 partner): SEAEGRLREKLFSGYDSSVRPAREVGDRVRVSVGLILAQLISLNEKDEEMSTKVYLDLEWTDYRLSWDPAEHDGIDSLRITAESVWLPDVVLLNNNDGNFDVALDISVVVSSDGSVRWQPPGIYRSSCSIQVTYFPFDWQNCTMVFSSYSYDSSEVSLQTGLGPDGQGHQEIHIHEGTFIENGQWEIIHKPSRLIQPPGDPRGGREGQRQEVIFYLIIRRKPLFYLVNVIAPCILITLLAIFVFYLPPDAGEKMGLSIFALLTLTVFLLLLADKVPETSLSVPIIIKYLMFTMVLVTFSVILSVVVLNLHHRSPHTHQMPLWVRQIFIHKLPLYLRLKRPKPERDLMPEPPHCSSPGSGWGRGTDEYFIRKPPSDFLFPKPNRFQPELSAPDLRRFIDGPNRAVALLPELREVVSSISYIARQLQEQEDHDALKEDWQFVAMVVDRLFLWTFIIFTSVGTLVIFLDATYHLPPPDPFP
T1 sequence (P09483 31-630): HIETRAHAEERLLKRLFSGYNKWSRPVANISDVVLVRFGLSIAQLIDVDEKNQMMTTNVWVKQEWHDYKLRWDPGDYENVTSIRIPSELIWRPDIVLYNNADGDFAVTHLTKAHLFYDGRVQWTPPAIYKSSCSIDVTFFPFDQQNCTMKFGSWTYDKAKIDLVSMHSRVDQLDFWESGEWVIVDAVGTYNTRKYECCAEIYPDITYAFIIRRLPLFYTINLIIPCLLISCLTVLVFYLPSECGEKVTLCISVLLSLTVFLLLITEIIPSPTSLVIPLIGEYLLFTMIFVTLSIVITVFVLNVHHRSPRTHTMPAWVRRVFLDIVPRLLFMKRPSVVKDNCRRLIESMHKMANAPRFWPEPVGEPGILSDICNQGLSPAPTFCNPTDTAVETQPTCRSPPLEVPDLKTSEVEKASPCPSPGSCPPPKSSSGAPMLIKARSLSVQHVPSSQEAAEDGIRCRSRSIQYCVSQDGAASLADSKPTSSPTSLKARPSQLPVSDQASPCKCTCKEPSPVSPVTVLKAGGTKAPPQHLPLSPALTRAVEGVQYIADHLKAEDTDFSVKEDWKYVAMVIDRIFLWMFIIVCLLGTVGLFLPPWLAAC
T1 sequence (P12390 25-500): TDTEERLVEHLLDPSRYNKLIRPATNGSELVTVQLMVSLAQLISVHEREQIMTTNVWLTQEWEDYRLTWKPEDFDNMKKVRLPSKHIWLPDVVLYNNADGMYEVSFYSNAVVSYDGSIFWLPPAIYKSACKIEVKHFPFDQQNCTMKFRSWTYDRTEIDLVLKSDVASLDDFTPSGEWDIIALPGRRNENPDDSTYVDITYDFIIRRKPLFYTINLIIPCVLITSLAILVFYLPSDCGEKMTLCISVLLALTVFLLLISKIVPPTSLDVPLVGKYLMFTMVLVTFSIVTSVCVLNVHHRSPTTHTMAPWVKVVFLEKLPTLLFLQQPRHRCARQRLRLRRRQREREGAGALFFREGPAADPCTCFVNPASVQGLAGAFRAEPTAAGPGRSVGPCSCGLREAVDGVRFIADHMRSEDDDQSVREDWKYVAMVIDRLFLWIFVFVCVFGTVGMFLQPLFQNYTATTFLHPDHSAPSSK

`c1cnc2cc3c(cc2n1)CCNCC3` [Compound A, 7,8,9,10-tetrahydro-6H-azepino[4,5-g]quinoxaline] registered a Ki on Rat α4β2 nAChR subtype of 0.017 µM. The EC50 in assay [1] (86Rb+ efflux) was found to be 75 µM. This molecule also showed an Emax in assay [1] (percentage of maximal activation induced by L-nicotine) of 23%.

The Ki is a dissociation constant, usually derived from enzyme kinetics or from competition with a known ligand. Lower therefore signals tighter binding. A word on the EC50: it is the concentration giving half of the maximal effect. Lower therefore signals higher potency in that assay. The Emax is the size of the effect at its maximum, as opposed to the concentration needed.
